# Test results: patent publication US8012939B2 (Tibotec Pharmaceuticals Ltd. Co, priority 2005, dated 2011)
# How the values were obtained:
# [1] = target: T1, HCV NS3/4A protease complexes (full-length hepatitis C NS3 protease enzyme with NS4A cofactor) (Hepatitis C virus genotype 1a, UniProt P27958); assay: Inhibition assay (enzymatic assay, depsipeptide substrate hydrolysis); assay type: biochemical; settings: enzyme 1 nM, 25 μM NS4A cofactor, 0.5 μM substrate, 30° C., pH 7.5, model for competitive inhibition
# T1 construct: full-length hepatitis C NS3 protease enzyme
# Method: [Landro, 1997 #Biochem 36 9340-9348]. […] The solutions were stored at −20° C. between measurements.
# [Liu, 1999 Analytical Biochemistry 267 331-335].
# [2] = test system: HCV replicons (HCV type 1b, Huh-7 luc/neo cells); assay: Replicon assay (Huh-Luc cells, luciferase read-out); assay type: cell-based; settings: Hepatitis C virus, Huh-7, 72 h
# Text: The compounds of formula (I) were examined for activity in the inhibition of HCV RNA replication in a cellular assay. […] The cellular assay was based on a bicistronic expression construct, as described by Lohmann et al. (1999) Science vol. 285 pp. 110-113 with modifications described by Krieger et al. (2001) Journal of Virology 75: 4614-4624, in a multi-target screening strategy. In essence, the method was as follows.
# The assay utilized the stably transfected cell line Huh-7 luc/neo (hereafter referred to as Huh-Luc). This cell line harbors an RNA encoding a bicistronic expression construct comprising the wild type NS3-NS5B regions of HCV type 1b translated from an Internal Ribosome Entry Site (IRES) from encephalomyocarditis virus (EMCV), preceded by a reporter portion (FfL-luciferase), and a selectable marker portion (neo^R, neomycine phosphotransferase). The construct is bordered by 5′ and 3′ NTRs (non-translated regions) from HCV type 1b. Continued culture of the replicon cells in the presence of G418 (neo^R) is dependent on the replication of the HCV RNA. The stably transfected replicon cells that express HCV RNA, which replicates autonomously and to high levels, encoding inter alia luciferase, are used for screening the antiviral compounds.
# The replicon cells were plated in 384 well plates in the presence of the test and control compounds which were added in various concentrations. Following an incubation of three days, HCV replication was measured by assaying luciferase activity (using standard luciferase assay substrates and reagents and a Perkin Elmer ViewLux™ ultraHTS microplate imager). Replicon cells in the control cultures have high luciferase expression in the absence of any inhibitor. The inhibitory activity of the compound on luciferase activity was monitored on the Huh-Luc cells, enabling a doseresponse curve for each test compound.
# [3] = Huh-Luc cells, incubation of three days, luciferase activity
# T1 sequence (P27958 1027-1657, one chain of several): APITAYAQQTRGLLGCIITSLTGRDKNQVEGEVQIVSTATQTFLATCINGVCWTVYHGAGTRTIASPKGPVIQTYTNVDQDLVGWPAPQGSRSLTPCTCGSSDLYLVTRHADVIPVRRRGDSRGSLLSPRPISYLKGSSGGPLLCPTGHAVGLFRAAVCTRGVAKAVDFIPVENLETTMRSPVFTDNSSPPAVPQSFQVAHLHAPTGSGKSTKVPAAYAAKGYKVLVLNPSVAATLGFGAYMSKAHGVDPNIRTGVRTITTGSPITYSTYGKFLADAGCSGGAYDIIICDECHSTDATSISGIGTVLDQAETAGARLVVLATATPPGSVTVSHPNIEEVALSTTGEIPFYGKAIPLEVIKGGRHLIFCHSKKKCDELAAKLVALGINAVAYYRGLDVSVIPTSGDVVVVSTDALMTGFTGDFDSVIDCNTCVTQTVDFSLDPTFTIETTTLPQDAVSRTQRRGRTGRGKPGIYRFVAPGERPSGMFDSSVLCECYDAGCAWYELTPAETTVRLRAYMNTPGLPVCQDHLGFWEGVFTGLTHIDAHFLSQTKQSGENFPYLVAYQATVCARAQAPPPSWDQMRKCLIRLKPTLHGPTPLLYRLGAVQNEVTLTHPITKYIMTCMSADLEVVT
SMILES,Ki [1] [µM],"EC50 [2, 3] [µM]",EC50 [2] [µM]
"COc1ccc2c(OC3CC4C(=O)NC5(C(=O)O)CC5C=CCCCCN(C)C(=O)C4C3)nc(-c3nc(C4CC4)cs3)cc2c1 (stereo not shown) [Compound 29, 17-[3-(4-cyclopropylthiazol-2-yl)-6-methoxy-isoquinolin-1-yloxy]-13-methyl-2,14-dioxo-3,13-diazatricyclo[13.3.0.0^4,6]octadec-7-ene-4-carboxylic acid]",0.15,> 10,
"COc1ccc2c(O[C@@H]3C[C@H]4C(=O)N[C@]5(C(=O)NS(=O)(=O)C6CC6)C[C@H]5/C=C\CCCCN(C)C(=O)[C@@H]4C3)nc(-c3nc(C4CC4)cs3)cc2c1 [Compound 30, N-[17-[3-(4-cyclopropylthiazol-2-yl)-6-methoxyisoquinolin-1-yloxy]-13-methyl-2,14-dioxo-3,13-diazatricyclo[13.3.0.0^4,6]octadec-7-ene-4-carbonyl](cyclopropyl)sulfonamide]",0.0017,3.03,
"COc1ccc2c(O[C@@H]3C[C@H]4C(=O)N[C@]5(C(=O)O)C[C@H]5/C=C\CCCCN(C)C(=O)[C@@H]4C3)nc(-c3nc(C(C)C)cs3)cc2c1 [Compound 31, 17-[3-(4-isopropylthiazol-2-yl)-6-methoxyisoquinolin-1-yloxy]-13-methyl-2,14-dioxo-3,13-diazatricyclo[13.3.0.0^4,6]octadec-7-ene-4-carboxylic acid]",0.3,> 10,
"COc1ccc2c(O[C@@H]3C[C@H]4C(=O)N[C@]5(C(=O)NS(=O)(=O)C6CC6)C[C@H]5/C=C\CCCCN(C)C(=O)[C@@H]4C3)nc(-c3nc(C(C)C)cs3)cc2c1 [Compound 32, N-[17-[3-(4-isopropylthiazol-2-yl)-6-methoxyisoquinolin-1-yloxy]-13-methyl-2,14-dioxo-3,13-diazatricyclo[13.3.0.0^4,6]octadec-7-ene-4-carbonyl](cyclopropyl)sulfonamide]",0.0014,3.57,
"COc1ccc2c(O[C@@H]3C[C@H]4C(=O)N[C@]5(C(=O)O)C[C@H]5/C=C\CCCCN(C)C(=O)[C@@H]4C3)nc(-c3csc(NC(C)C)n3)cc2c1 [Compound 33, 17-[3-(2-isopropylaminothiazol-4-yl)-6-methoxyisoquinolin-1-yloxy]-13-methyl-2,14-dioxo-3,13-diazatricyclo[13.3.0.0^4,6]octadec-7-ene-4-carboxylic acid]",> 1,47.5,
"COc1ccc2c(O[C@@H]3C[C@H]4C(=O)N[C@]5(C(=O)NS(=O)(=O)C6CC6)C[C@H]5/C=C\CCCCN(C)C(=O)[C@@H]4C3)nc(-c3csc(NC(C)C)n3)cc2c1 [Compound 34, N-[17-[3-(2-isopropylaminothiazol-4-yl)-6-methoxyisoquinolin-1-yloxy]-13-methyl-2,14-dioxo-3,13-diazatricyclo[13.3.0.0^4,6]octadec-7-ene-4-carbonyl](cyclopropyl)sulfonamide]",0.0033,1.65,
"COc1ccc2c(O[C@@H]3C[C@H]4C(=O)N[C@]5(C(=O)O)C[C@H]5/C=C\CCCCN(C)C(=O)[C@@H]4C3)nc(-n3cccn3)cc2c1 [Compound 35, 17-[3-(pyrazol-1-yl)-6-methoxyisoquinolin-1-yloxy]-13-methyl-2,14-dioxo-3,13-diazatricyclo[13.3.0.0^4,6]octadec-7-ene-4-carboxylic acid]",> 1,,20.9
"COc1ccc2c(O[C@@H]3C[C@H]4C(=O)N[C@]5(C(=O)NS(=O)(=O)C6CC6)C[C@H]5/C=C\CCCCN(C)C(=O)[C@@H]4C3)nc(-n3cccn3)cc2c1 [Compound 36, N-[17-[3-(pyrazol-1-yl)-6-methoxyisoquinolin-1-yloxy]-13-methyl-2,14-dioxo-3,13-diazatricyclo[13.3.0.0^4,6]octadec-7-ene-4-carbonyl]-(cyclopropyl) sulfonamide]",0.0007,0.072,
"COc1ccc2c(O[C@@H]3C[C@H]4C(=O)N[C@]5(C(=O)O)C[C@H]5/C=C\CCCCN(C)C(=O)N4C3)nc(Cl)cc2c1 [Compound 42, 17-(3-chloro-6-methoxyisoquinolin-1-yloxy)-13-methyl-2,14-dioxo-3,13,15-triaza-tricyclo[13.3.0.0^4,6]octadec-7-ene-4-carboxylic acid]",0.62,> 10,
"COc1ccc2c(O[C@@H]3C[C@H]4C(=O)N[C@]5(C(=O)NS(=O)(=O)C6CC6)C[C@H]5/C=C\CCCCN(C)C(=O)N4C3)nc(Cl)cc2c1 [Compound 43, N-[17-(3-chloro-6-methoxyisoquinolin-1-yloxy)-13-methyl-2,14-dioxo-3,13,15-triaza-tricyclo[13.3.0.0^4,6]octadec-7-ene-4-carbonyl](cyclopropyl) sulfonamide]",0.015,2.1,
"COc1ccc2c(O[C@@H]3C[C@H]4C(=O)N[C@]5(C(=O)O)C[C@H]5/C=C\CCCCN(C)C(=O)N4C3)nccc2c1Br [Compound 50, 17-(5-bromo-6-methoxyisoquinolin-1-yloxy)-13-methyl-2,14-dioxo-3,13,15-triazatricyclo[13.3.0.0^4,6]octadec-7-ene-4-carboxylic acid]",> 1,,
"COc1ccc2c(O[C@@H]3C[C@H]4C(=O)N[C@]5(C(=O)NS(=O)(=O)C6CC6)C[C@H]5/C=C\CCCCN(C)C(=O)N4C3)nccc2c1Br [Compound 51, N-[17-(5-bromo-6-methoxyisoquinolin-1-yloxy)-13-methyl-2,14-dioxo-3,13,15-triaza-tricyclo[13.3.0.0^4,6]octadec-7-ene-4-carbonyl](cyclopropyl)sulfonamide]",0.0017,0.058,
COc1ccc2c(O[C@@H]3C[C@H]4C(=O)N[C@]5(C(=O)NS(=O)(=O)C6CC6)C[C@H]5/C=C\CCCCN(C)C(=O)N4C3)nccc2c1-c1ccc(C)nc1 [Compound 52],,> 10,
"COc1ccc(-c2c(OC)ccc3c(O[C@@H]4C[C@H]5C(=O)N[C@]6(C(=O)NS(=O)(=O)C7CC7)C[C@H]6/C=C\CCCCN(C)C(=O)N5C4)nccc23)cc1 [Compound 53, N-[17-[5-(4-methoxyphenyl)-6-methoxyisoquinolin-1-yloxy]-13-methyl-2,14-dioxo-3,13,15-triaza-tricyclo[13.3.0.0^4,6]octadec-7-ene-4-carbonyl](cyclopropyl)sulfonamide]",,> 10,
"COc1ccc2c(O[C@@H]3C[C@H]4C(=O)N[C@]5(C(=O)NS(=O)(=O)C6CC6)C[C@H]5/C=C\CCCCN(C)C(=O)N4C3)nccc2c1-c1ccccc1 [Compound 54, N-[17-[5-phenyl-6-methoxyisoquinolin-1-yloxy]-13-methyl-2,14-dioxo-3,13,15-triaza-tricyclo[13.3.0.0^4,6]octadec-7-ene-4-carbonyl](cyclopropyl) sulfonamide]",,> 10,
"COc1ccc2c(O[C@@H]3C[C@H]4C(=O)N[C@]5(C(=O)O)C[C@H]5/C=C\CCCCN(C)C(=O)N4C3)nccc2c1 [Compound 55, 17-(6-methoxyisoquinolin-1-yloxy)-13-methyl-2,14-dioxo-3,13,15-triaza-tricyclo[13.3.0.0^4,6]octadec-7-ene-4-carboxylic acid]",> 1,> 100,
"COc1ccc2c(O[C@@H]3C[C@H]4C(=O)N[C@]5(C(=O)NS(=O)(=O)C6CC6)C[C@H]5/C=C\CCCCN(C)C(=O)N4C3)nc(-c3ccc(OC(F)(F)F)cc3)cc2c1 [Compound 58, N-[17-(3-(4-trifluoromethoxyphenyl)-6-methoxyisoquinolin-1-yloxy)-13-methyl-2,14-dioxo-3,13,15-triaza-tricyclo[13.3.0.0^4,6]octadec-7-ene-4-carbonyl](cyclopropyl)sulfonamide]",,2.31,
"COc1ccc2c(O[C@@H]3C[C@H]4C(=O)N[C@]5(C(=O)NS(=O)(=O)C6CC6)C[C@H]5/C=C\CCCCN(C)C(=O)N4C3)ncc(Br)c2c1 [Compound 66, N-[17-(4-bromo-6-methoxyisoquinolin-1-yloxy)-13-methyl-2,14-dioxo-3,13,15-triaza-tricyclo[13.3.0.0^4,6]octadec-7-ene-4-carbonyl](cyclopropyl) sulfonamide]",,0.323,
"COc1ccc2c(O[C@@H]3C[C@H]4C(=O)N[C@]5(C(=O)O)C[C@H]5/C=C\CCCCN(C)C(=O)N4C3)nc(-c3csc(NC(C)C)n3)cc2c1 [Compound 71, 17-[3-(2-isopropylaminothiazol-4-yl)-6-methoxyisoquinolin-1-yloxy]-13-methyl-2,14-dioxo-3,13,15-triaza-tricyclo[13.3.0.0^4,6]octadec-7-ene-4-carboxylic acid]",,> 10,
